Assays:
[1] = tested on: mixture of 54 different pTyr-including peptides derived from 54 TK activation loops; experiment: Capture of pTyr-including peptides from a mixture of TK activation loop peptides, scheduled PRM; assay type: binding
Procedure: Equal molar amounts (10 nmole) of the wild-type (wt) human Src SH2 domain and the DM and TrM human Src SH2 Superbinders (SEQ ID NO: 14 and 5, respectively) expressed with His6 and GST tags were used to capture pTyr-including peptides from a mixture of 54 different pTyr-including peptides (10 pmole each) derived from 54 TK activation loops. The isolated peptides were identified by PRM and quantified based on the corresponding MS peak area. 1.8% of the eluted peptides were injected into a Q-Exactive (Thermo Fisher) preceded with a nano-LC system.
Shown are the amounts of pTyr-including peptides captured, based on the corresponding peak area of PRM signal, by each of the parent human Src SH2 domain and the DM and TrM human Src SH2 Superbinders.

[2] = target: MidT-pTyr^324 peptide EPQpYEEIPIYL; settings: peptide MidT-pTyr^324 EPQpYEEIPIYL; read-out: equilibrium dissociation constant (Kd); cited from earlier work
[3] = target: ShcA-pTyr^239 peptide DHQpYYNDFPG; settings: peptide ShcA-pTyr^239 DHQpYYNDFPG; read-out: equilibrium dissociation constant (Kd); cited from earlier work
[4] = target: VEGFR1-pTyr^1213 peptide DVRpYVNAAKF; settings: peptide VEGFR1-pTyr^1213 DVRpYVNAAKF; read-out: equilibrium dissociation constant (Kd); cited from earlier work
Designed peptide GGpYGG = settings: read-out: equilibrium dissociation constant (Kd); cited from earlier work
[5] = target: EGFR-pTyr^1110 peptide NPVpYHNQPLN; settings: peptide EGFR-pTyr^1110 NPVpYHNQPLN; read-out: equilibrium dissociation constant (Kd); cited from earlier work
[6] = target: ShcA-pTyr^317 peptide DPSpYVNVQNL; settings: peptide ShcA-pTyr^317 DPSpYVNVQNL; read-out: equilibrium dissociation constant (Kd); cited from earlier work
[7] = target: EGFR-pTyr^978 peptide PQRpYLVIQGD; settings: peptide EGFR-pTyr^978 PQRpYLVIQGD; read-out: equilibrium dissociation constant (Kd); cited from earlier work
[8] = target: RSKL-pTyr^423 peptide YQHpYDLDLKD; settings: peptide RSKL-pTyr^423 YQHpYDLDLKD; read-out: equilibrium dissociation constant (Kd); cited from earlier work

Wild type: wild-type (parent) human Src SH2 domain; SEQ ID NO: 4, His6/GST-tagged form SEQ ID NO: 10 [reference compound]
number of the 54 pTyr-including peptides captured / detected by PRM ([1]; 10 nmole SH2 domain, 10 pmole each peptide): 22 | PRM signal peak area ([1]; BLK (pTyr389) IIDSEpYTAQEGAK, fragment ion b2): 0 | PRM signal peak area ([1]; BMX (pTyr566) YVLDDQpYVSSVGTK, fragment ion b2): 0 | PRM signal peak area ([1]; BTK (pTyr551) YVLDDEpYTSSVGSK, fragment ion b2): 4,214 | PRM signal peak area ([1]; DDR1 (pTyr796/797) NLYAGDpYpYR, fragment ion b2): 47,729 | PRM signal peak area ([1]; DDR2 (pTyr740/741) NLYSGDpYpYR, fragment ion y6): 15,251 | PRM signal peak area ([1]; EPHA1 (pTyr781) LLDDFDGTpYETQGGK, fragment ion y9): 0 | PRM signal peak area ([1]; EPHA2 (pTyr772) VLEDDPEATpYTTSGGK, fragment ion y11): 0 | PRM signal peak area ([1]; EPHA3 (pTyr779) VLEDDPEAApYTTR, fragment ion y8): 0 | PRM signal peak area ([1]; EPHA6 (pTyr830) VLEDDPEAApYTTTGGK, fragment ion b2): 2,742 | PRM signal peak area ([1]; EPHA8 (pTyr793) VLEDDPDAApYTTTGGK, fragment ion y11): 0 | PRM signal peak area ([1]; EPHB1 (pTyr778) YLQDDTSDPTpYTSSLGGK, fragment ion y10): 0 | PRM signal peak area ([1]; EPHB2 (pTyr780) FLEDDTSDPTpYTSALGGK, fragment ion Y3): 10,833 | PRM signal peak area ([1]; EPHB3 (pTyr792) FLEDDPSDPTpYTSSLGGK, fragment ion y10): 0 | PRM signal peak area ([1]; EPHB4 (pTyr774) FLEENSSDPTpYTSSLGGK, fragment ion y10): 0 | PRM signal peak area ([1]; ERBB2 (pTyr877) LLDIDETEpYHADGGK, fragment ion b3): 0 | PRM signal peak area ([1]; ERBB3 (pTyr866) QLLpYSEAK, fragment ion y2): 41,881 | PRM signal peak area ([1]; FER (pTyr714) QEDGGVpYSSSGLK, fragment ion y7): 0 | PRM signal peak area ([1]; FES (pTyr713) EEADGVpYAASGGLR, fragment ion y8): 0 | PRM signal peak area ([1]; FGFR1 (pTyr653/654) DIHHIDpYpYK, fragment ion b6): 28,495 | PRM signal peak area ([1]; FGFR2 (pTyr656/657) DINNIDpYpYK, fragment ion y4): 51,625 | PRM signal peak area ([1]; FGFR3 (pTyr647/648) DVHNLDpYpYK, fragment ion b3): 103,678 | PRM signal peak area ([1]; FGFR4 (pTyr642/643) GVHHIDpYpYK, fragment ion b3): 29,764 | PRM signal peak area ([1]; FRK (pTyr387) VDNEDIpYESR, fragment ion y6): 0 | PRM signal peak area ([1]; GSK3 (pTyr279/216) GEPNVSpYICSR, fragment ion y6): 0 | PRM signal peak area ([1]; HCK (pTyr411) VIEDNEpYTAR, fragment ion b2): 0 | PRM signal peak area ([1]; INSRR (pTyr1145/1146) DVYETDpYpYR, fragment ion y5): 0 | PRM signal peak area ([1]; ITK (pTyr512) FVLDDQpYTSSTGTK, fragment ion y11): 0 | PRM signal peak area ([1]; JAK1 (pTyr1034/1035) EpYpYTVK, fragment ion y2): 58,254 | PRM signal peak area ([1]; JAK2 (pTyr221) IQDpYHILTR, fragment ion Y3): 0 | PRM signal peak area ([1]; JAK3 (pTyr980/981) DpYpYVVR, fragment ion y2): 23,291 | PRM signal peak area ([1]; KIT (pTyr823) NDSNpYVVK, fragment ion b2): 0 | PRM signal peak area ([1]; LMTK2 (pTyr295) EDpYIETDDK, fragment ion b2): 0 | PRM signal peak area ([1]; LMTK3 (pTyr296/297) EDpYpYLTPER, fragment ion y3): 29,887 | PRM signal peak area ([1]; MERTK (pTyr753/754) IYSGDpYpYR, fragment ion b2): 0 | PRM signal peak area ([1]; MET (pTyr1234/1235) EpYpYSVHNK, fragment ion y2): 26,824 | PRM signal peak area ([1]; MUSK (pTyr755/756) NIYSADpYpYK, fragment ion y2): 47,647 | PRM signal peak area ([1]; NTRK1 (pTyr680/681) DIYSTDpYpYR, fragment ion b2): 21,736 | PRM signal peak area ([1]; NTRK2 (pTyr706/707) DVYSTDpYpYR, fragment ion y4): 39,632 | PRM signal peak area ([1]; PGFRB (pTyr857) DSNpYISK, fragment ion y2): 0 | PRM signal peak area ([1]; PTK7 (pTyr960/961) DVYNSEpYpYHFR, fragment ion b2): 0 | PRM signal peak area ([1]; RET (pTyr905) DVYEEDSpYVK, fragment ion b2): 0 | PRM signal peak area ([1]; RON (pTyr1238/1239) EpYpYSVQQHR, fragment ion y4): 5,434 | PRM signal peak area ([1]; ROR1 (pTyr645/646) EIYSADpYpYR, fragment ion y6): 32,356 | PRM signal peak area ([1]; ROR2 (pTyr645/646) EVYAADpYpYK, fragment ion y5): 85,894 | PRM signal peak area ([1]; SRC (pTyr419) LIEDNEpYTAR, fragment ion b2): 0 | PRM signal peak area ([1]; SRMS (pTyr380) DDIpYSPSSSSK, fragment ion y8): 0 | PRM signal peak area ([1]; TEC (pTyr519) YVLDDQpYTSSSGAK, fragment ion b2): 0 | PRM signal peak area ([1]; TIE1 (pTyr1007) GEEVpYVK, fragment ion b2): 0 | PRM signal peak area ([1]; TIE2 (pTyr992) GQEVpYVK, fragment ion b2): 0 | PRM signal peak area ([1]; TXK (pTyr420) YVLDDEpYVSSFGAK, fragment ion b2): 1,519 | PRM signal peak area ([1]; TYK2 (pTyr1054/1055) AVPEGHEpYpYR, fragment ion y6): 11,551 | PRM signal peak area ([1]; VGFR1 (pTyr1053) NPDpYVR, fragment ion y3): 0 | PRM signal peak area ([1]; VGFR2 (pTyr1059) DPDpYVR, fragment ion Y3): 0 | Kd [2]: 0.13 µM | Kd [3]: 0.7 µM | Kd [4]: 6.5 µM | Kd (Designed peptide GGpYGG): > 30 µM | Kd [5]: 6.9 µM | Kd [6]: 2.2 µM | Kd [7]: 3.7 µM | Kd [8]: 3.9 µM
